Test results taken from patent publication US20260265265A1, “NOVEL BENZIMIDAZOLONE DERIVATIVE COMPOUND AS AUTOTAXIN INHIBITOR” (LG CHEM, LTD., priority 2023, published 2026).

Target: T1, Recombinant Human ENPP-2/Autotaxin (Homo sapiens, UniProt Q13822)
T1 construct: purchased R&D systems 5255-EN
Experiment: LysoPLD activity measurement (autotaxin enzyme inhibition, choline release, TOOS reagent)
Format: biochemical
Conditions: LysoPLD inhibitory activity; substrate 14:0 LysoPC; absorbance at 555 nm
Procedure, shortened: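 Autotaxin lysoPLD activity was read as choline released from 14:0 LysoPC, detected by TOOS reagent absorbance. Compound was preincubated 30 min, then substrate diluted to 300 μM was added and the reaction ran 90 minutes at 37° C. Controls contained 1% DMSO.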

SMILES | IC50
CN(C)c1ccc(-n2c(=O)n(Cc3cccc(C(=O)O)c3)c3ncc(Cl)cc32)cc1 [Example 161, 3-((6-chloro-1-(4-(dimethylamino)phenyl)-2-oxo-1,2-dihydro-3H-imidazo[4,5-b]pyridin-3-yl)methyl)benzoic acid] | 100 to 1000 nM
O=C(O)c1cccc(Cn2c(=O)n(-c3ccc(N4CCCCC4=O)cc3)c3cc(Cl)ccc32)c1 [Example 28, 3-((5-chloro-2-oxo-3-(4-(2-oxopiperidin-1-yl)phenyl)-2,3-dihydro-1H-benzo[d]imidazol-1-yl)methyl)benzoic acid] | 10 to 100 nM
O=C(O)c1cccc(C2(n3c(=O)n(-c4ccc(-c5nnc(C6CCCCC6)o5)cc4)c4cc(Cl)ccc43)CC2)c1 [Example 265, 3-(1-(5-chloro-3-(4-(5-cyclohexyl-1,3,4-oxadiazol-2-yl)phenyl)-2-oxo-2,3-dihydro-1H-benzo[d]imidazol-1-yl)cyclopropyl)benzoic acid] | 10 to 100 nM
O=C(O)c1cccc(C2(n3c(=O)n(-c4ccc(N5CCOCC5)cc4)c4cc(Cl)cnc43)CC2)c1F [Example 230] | 10 to 100 nM
CC(C)(c1cccc(C(=O)O)c1)n1c(=O)n(-c2ccc(N3CC(O)C3)cc2)c2cc(Cl)ccc21 [Example 154, 3-(2-(5-chloro-3-(4-(3-hydroxyazetidin-1-yl)phenyl)-2-oxo-2,3-dihydro-1H-benzo[d]imidazol-1-yl)propane-2-yl)benzoic acid] | 10 to 100 nM
O=C(O)c1cccc(Cn2c(=O)n(-c3ccc(N4CCN(C(=O)C5CCC5)CC4)cc3)c3cc(Cl)ccc32)c1F [Example 142, 3-((5-chloro-3-(4-(4-(cyclobutanecarbonyl)piperazin-1-yl)phenyl)-2-oxo-2,3-dihydro-1H-benzo[d]imidazol-1-yl)methyl)-2-fluorobenzoic acid] | 10 to 100 nM
O=C(O)c1cccc(C2(n3c(=O)n(-c4ccc(CC(=O)N5CCC(F)(F)CC5)cc4)c4cc(Cl)ccc43)CC2)c1 [Example 173, 3-(1-(5-chloro-3-(4-(2-(4,4-difluoropiperidin-1-yl)-2-oxoethyl)phenyl)-2-oxo-2,3-dihydro-1H-benzo[d]imidazol-1-yl)cyclopropyl)benzoic acid] | 10 to 100 nM
O=C(O)c1cccc(Cn2c(=O)n(-c3ccc(OCC4CC4)cc3)c3cc(Cl)ccc32)c1 [Example 42, 3-((5-chloro-3-(4-(cyclopropylmethoxy)phenyl)-2-oxo-2,3-dihydro-1H-benzo[d]imidazol-1-yl)methyl)benzoic acid] | 100 to 1000 nM
O=C(O)c1ccc(F)c(Cn2c(=O)n(-c3ccccc3)c3cc(Cl)ccc32)c1 [Example 32, 3-((5-chloro-2-oxo-3-phenyl-2,3-dihydro-1H-benzo[d]imidazol-1-yl)methyl)-4-fluorobenzoic acid] | 100 to 1000 nM
O=C(O)c1cc(F)cc(Cn2c(=O)n(-c3ccc(N4CCOCC4)cc3)c3c(F)c(Cl)ccc32)c1 [Example 49, 3-((5-chloro-4-fluoro-3-(4-morpholinophenyl)-2-oxo-2,3-dihydro-1H-benzo[d]imidazol-1-yl)methyl)-5-fluorobenzoic acid] | 10 to 100 nM
CN(C)c1ccc(-n2c(=O)n(C3(c4cccc(C(=O)O)c4)CC3)c3ccc(C(F)(F)F)cc32)cc1 [Example 206, 3-(1-(3-(4-(dimethylamino)phenyl)-2-oxo-5-(trifluoromethyl)-2,3-dihydro-1H-benzo[d]imidazol-1-yl)cyclopropyl)benzoic acid] | 10 to 100 nM
O=C(O)c1cccc(Cn2c(=O)n(-c3ccc(-c4ccccc4)cc3)c3cc(Cl)ccc32)c1 [Example 15, 3-((3-([1,1′-biphenyl]-4-yl)-5-chloro-2-oxo-2,3-dihydro-1H-benzo[d]imidazol-1-yl)methyl)benzoic acid] | 100 to 1000 nM
COC1CCN(C(=O)c2ccc(-n3c(=O)n(Cc4cccc(C(=O)O)c4)c4ccc(Cl)cc43)cc2)CC1 [Example 62, 3-((5-chloro-3-(4-(4-methoxypiperidine-1-carbonyl)phenyl)-2-oxo-2,3-dihydro-1H-benzo[d]imidazol-1-yl)methyl)benzoic acid] | < 10 nM
CC1(C)Cc2cc(-n3c(=O)n(Cc4cccc(C(=O)O)c4)c4ccc(Cl)cc43)ccc2C1=O [Example 115, 3-((5-chloro-3-(2,2-dimethyl-1-oxo-2,3-dihydro-1H-inden-5-yl)-2-oxo-2,3-dihydro-1H-benzo[d]imidazol-1-yl)methyl)benzoic acid] | 100 to 1000 nM
O=C(O)c1cc(F)cc(C2(n3c(=O)n(-c4ccc(N5CC6CCC(C5)O6)cc4)c4cc(Cl)ccc43)CC2)c1 [Example 192, 3-(1-(3-(4-(8-oxa-3-azabicyclo[3.2.1]octan-3-yl)phenyl)-5-chloro-2-oxo-2,3-dihydro-1H-benzo[d]imidazol-1-yl)cyclopropyl)-5-fluorobenzoic acid] | < 10 nM
O=C(O)c1cc(Cn2c(=O)n(-c3ccc(N4CCOCC4)cc3)c3c(F)c(Cl)ccc32)on1 [Example 198, 5-((5-chloro-4-fluoro-3-(4-morpholinophenyl)-2-oxo-2,3-dihydro-1H-benzo[d]imidazol-1-yl)methyl)isoxazole-3-carboxylic acid] | 100 to 1000 nM
CC1CC=C(c2ccc(-n3c(=O)n(Cc4cccc(C(=O)O)c4F)c4ccc(Cl)cc43)cc2)CC1 (stereo not shown) [Example 111, 3-((5-chloro-3-(4′-methyl-2′,3′,4′,5′-tetrahydro-′[1,1′-biphenyl]-4-yl)-2-oxo-2,3-dihydro-1H-benzo[d]imidazol-1-yl)methyl)-2-fluorobenzoic acid] | 100 to 1000 nM
O=C(O)c1cccc(Cn2c(=O)n(-c3ccc(N4CCCC4)cc3)c3cc(Cl)ccc32)c1 [Example 29, 3-((5-chloro-2-oxo-3-(4-(pyrrolidin-1-yl)phenyl)-2,3-dihydro-1H-benzo[d]imidazol-1-yl)methyl)benzoic acid] | 10 to 100 nM
O=C(O)c1cccc(C2(n3c(=O)n(-c4ccc(N5CC6CCC(C5)O6)cc4)c4cc(Cl)ccc43)CC2)c1 [Example 182, 3-(1-(3-(4-(8-oxa-3-azabicyclo[3.2.1]octan-3-yl)phenyl)-5-chloro-2-oxo-2,3-dihydro-1H-benzo[d]imidazol-1-yl)cyclopropyl)benzoic acid] | < 10 nM

Next, values leading:

IC50 | SMILES
< 10 nM | CN(C)c1ccc(-n2c(=O)n(C3(c4cccc(C(=O)O)c4F)CC3)c3ncc(Cl)cc32)cc1 [Example 229, 3-(1-(6-chloro-1-(4-(dimethylamino)phenyl)-2-oxo-1,2-dihydro-3H-imidazo[4,5-b]pyridin-3-yl)cyclopropyl)-2-fluorobenzoic acid]
< 10 nM | O=C(O)c1cccc(C2(n3c(=O)n(-c4ccc(C(=O)N5CC(O)C5)cc4)c4cc(Cl)ccc43)CC2)c1 [Example 128, 3-(1-(5-chloro-3-(4-(3-hydroxyazetidine-1-carbonyl)phenyl)-2-oxo-2,3-dihydro-1H-benzo[d]imidazol-1-yl)cyclopropyl)benzoic acid]
< 10 nM | CN(C)C(=O)c1ccc(-n2c(=O)n(C3(c4cccc(C(=O)O)c4)CCC3)c3ccc(Cl)cc32)cc1 [Example 157, 3-(1-(5-chloro-3-(4-(dimethylcarbamoyl)phenyl)-2-oxo-2,3-dihydro-1H-benzo[d]imidazol-1-yl)cyclobutyl)benzoic acid]
< 10 nM | CN(C)c1ccc(-n2c(=O)n(C3(c4cccc(C(=O)O)c4F)CC3)c3ccc(Cl)cc32)cc1 [Example 70, 3-(1-(5-chloro-3-(4-(dimethylamino)phenyl)-2-oxo-2,3-dihydro-JH-benzo[d]imidazol-1-yl)cyclopropyl)-2-fluorobenzoic acid]
< 10 nM | CN(C)C(=O)c1ccc(-n2c(=O)n(C3(c4cccc(C(=O)O)c4)CC3)c3ccc(Cl)cc32)cc1 [Example 71, 3-(1-(5-chloro-3-(4-(dimethylcarbamoyl)phenyl)-2-oxo-2,3-dihydro-1H-benzo[d]imidazol-1-yl)cyclopropyl)benzoic acid]
< 10 nM | O=C(O)c1cccc(C2(n3c(=O)n(-c4ccc(C5(CO)CC5)cc4)c4cc(Cl)ccc43)CC2)c1 [Example 238, 3-(1-(5-chloro-3-(4-(1-(hydroxymethyl)cyclopropyl)phenyl)-2-oxo-2,3-dihydro-1H-benzo[d]imidazol-1-yl)cyclopropyl)benzoic acid]
< 10 nM | O=C(O)c1cccc(Cn2c(=O)n(-c3ccc(C(=O)N4CCC(O)CC4)cc3)c3cc(Cl)ccc32)c1 [Example 61, 3-((5-chloro-3-(4-(4-hydroxypiperidin-1-carbonyl)phenyl)-2-oxo-2,3-dihydro-1H-benzo[d]imidazol-1-yl)methyl)benzoic acid]
< 10 nM | CCC(=O)N1CCC(c2ccc(-n3c(=O)n(C4(c5cc(F)cc(C(=O)O)c5)CC4)c4ccc(Cl)cc43)cc2)CC1 [Example 235, 3-(1-(5-chloro-2-oxo-3-(4-(1-propionylpiperidin-4-yl)phenyl)-2,3-dihydro-1H-benzo[d]imidazol-1-yl)cyclopropyl)-5-fluorobenzoic acid]
< 10 nM | O=C(O)c1cccc(C2(n3c(=O)n(-c4ccc(C5CCOCC5)cc4)c4cc(Cl)ccc43)CC2)c1 [Example 99, 3-(1-(5-chloro-2-oxo-3-(4-(tetrahydro-2H-pyran-4-yl)phenyl)-2,3-dihydro-1H-benzo[d]imidazol-1-yl)cyclopropyl)benzoic acid]
< 10 nM | O=C(O)c1cccc(C2(n3c(=O)n(-c4ccc(N5CCCOCC5)cc4)c4cc(Cl)ccc43)CC2)c1 [Example 183, 3-(1-(3-(4-(1,4-oxazepan-4-yl)phenyl)-5-chloro-2-oxo-2,3-dihydro-1H-benzo[d]imidazol-1-yl)cyclopropyl)benzoic acid]
< 10 nM | O=C(O)c1cccc(C2(n3c(=O)n(-c4ccc(S(=O)(=O)NC5CC5)cc4)c4cc(Cl)ccc43)CC2)c1 [Example 211, 3-(1-(5-chloro-3-(4-(N-cyclopropylsulfamoyl)phenyl)-2-oxo-2,3-dihydro-1H-benzo[d]imidazol-1-yl)cyclopropyl)benzoic acid]
< 10 nM | O=C(O)c1cc(F)cc(C2(n3c(=O)n(-c4ccc(C5CCOC5)cc4)c4cc(Cl)ccc43)CC2)c1 (stereo not shown) [Example 249, 3-(1-(5-chloro-2-oxo-3-(4-(tetrahydrofuran-3-yl)phenyl)-2,3-dihydro-1H-benzo[d]imidazol-1-yl)cyclopropyl)-5-fluorobenzoic acid]
